# Measurements from PubChem BioAssay (NCI).
# Several values for one entry are separate records, joined by “and”; a condition that tells them apart may be missing. Equal entries are not always repeated.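 96-well plates; 48 h exposure; 5 concentrations. Endpoints by linear interpolation between flanking doses. Not reached: highest tested concentration assigned. GI50 = concentration required for 50% inhibition of growth. At the TGI there is no net growth.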
# Experiments:
# Assay in all cases: NCI anticancer screen, dose series, 48 h
# HCT-15 colon = tested on: HCT-15 colon
# IGROV1 ovarian = tested on: IGROV1 ovarian
# KM12 colon = tested on: KM12 colon
# SF-295 CNS = tested on: SF-295 CNS
# SK-MEL-2 melanoma = tested on: SK-MEL-2 melanoma
# SNB-75 CNS = tested on: SNB-75 CNS
# SR leukemia = tested on: SR leukemia
# UACC-62 melanoma = tested on: UACC-62 melanoma
# DU-145 prostate = tested on: DU-145 prostate
# T-47D breast = tested on: T-47D breast
Compound,TGI (HCT-15 colon) [µM],TGI (IGROV1 ovarian) [µM],TGI (KM12 colon) [µM],TGI (SF-295 CNS) [µM],TGI (SK-MEL-2 melanoma) [µM],TGI (SNB-75 CNS) [µM],TGI (SR leukemia) [µM],TGI (UACC-62 melanoma) [µM],TGI (DU-145 prostate) [µM],TGI (T-47D breast) [µM],GI50 (DU-145 prostate) [µM],GI50 (HCT-15 colon),GI50 (IGROV1 ovarian) [µM],GI50 (KM12 colon) [µM],GI50 (SF-295 CNS) [µM],GI50 (SK-MEL-2 melanoma) [µM],GI50 (SR leukemia) [µM],GI50 (T-47D breast) [µM],GI50 (SNB-75 CNS) [µM],GI50 (UACC-62 melanoma) [µM]
CCc1oc2ccc(OC)c3c2c1C=CC=C3,> 100,> 100,> 100,> 100,> 100,> 100,> 100,> 100,–,–,–,–,–,–,–,–,–,–,–,–
CC(C)(C)C[P+](C)(C)c1ccccc1,> 100,> 100,> 100,> 100,> 100,> 100,> 100,> 100,–,–,–,–,–,–,–,–,–,–,–,–
COC(=O)C1=Cc2c(OC)cc(OC)c(OC)c2[C@H](c2cc(OC)c(OC)cc2OC)C1C(=O)OC (stereo partly specified),> 100,> 100,> 100,> 100,–,> 100,–,> 100,–,–,–,–,–,–,–,–,–,–,–,–
O=C1c2cccc3cc([N+](=O)[O-])cc(c23)C(=O)N1O,> 100,> 100,61.7,> 100,> 100,–,> 100,81.4,> 100,> 100,–,–,–,–,–,–,–,–,–,–
CP(C)C.[Ag][I],> 100,> 100,> 100,> 100,> 100,46.5,> 100,> 100,–,–,–,–,–,–,–,–,–,–,–,–
COc1ccc(C2C3=C(COC3=O)N(CCO)c3cc4c(cc32)OCCO4)cc1OC (stereo unspecified),> 50,14.9,> 38.7,12,3.65,–,35.8,> 50,14.9,> 50,1.93,5.39 µM,1.91,1.35,0.922,0.979,0.741,2.17,–,–
N#CC12Cc3ccc4c(c3-c3cccc(c31)CCN2C(=O)c1ccccc1)OCO4 (stereo unspecified),> 100,> 100,> 100,> 100,–,> 100,> 100,> 100,–,–,–,–,–,–,–,–,–,–,–,–
Cc1cc2nc3c4ccccc4n(CCN(C)C)c3nc2cc1C,10.4,10.2,9.8,9.84,4.24,3.2,–,2.82,11.8,12.6,2.07,1.77 µM,1.28,1.93,1.39,1.9,–,2.8,1.28,1.43
CC1(C)CC2CC(C)(CN2c2ncnc3ccc(Br)cc23)C1 (stereo unspecified),28.9,22.8,26.5,16.3,> 100,–,–,19.5,24.9,31.2,12.4,15.5 µM,10.9,11.1,3.34,28.8,–,13,–,5.76
Cc1cccc(N=C2NC(=O)C(CC(=O)Nc3ccc(Cl)cc3C)S2)c1 (stereo unspecified),> 100,> 100,> 100,> 100,> 100,> 100,–,> 100,–,–,–,–,–,–,–,–,–,–,–,–
CCOC(=O)N1CCC(=O)C[C@@H]1C/C=C/P1(=O)O[C@H](c2ccccc2)C(C)N1C(C)C (stereo partly specified),> 100,> 100,> 100,> 100,> 100,> 100,> 100,> 100,–,–,–,–,–,–,–,–,–,–,–,–
CC[C@H](C)[C@H](NC(=O)C12CC(NC(C)=O)(C1)C2)C(=O)N(C)[C@H](C[C@@H](OC(C)=O)c1nc(C(=O)N[C@@H](Cc2ccccc2)C[C@H](C)C(=O)OC)cs1)C(C)C,> 16.7,> 16.7,> 16.7,> 5.25,> 16.7,> 16.7,> 16.7,> 16.7,> 10.7,–,0.136,1.09 µM,0.502,0.296,0.36,0.108,0.0336,–,0.123,0.0735
CC1=NN(c2ccccc2)C(=O)C1N=Nc1ccc(Br)c(C)c1 (stereo unspecified),> 100,> 100,> 100,> 100,> 100,> 100,–,> 100,–,–,–,–,–,–,–,–,–,–,–,–
Cc1ccc(-c2cc(/C=N/O)on2)cc1,> 100,> 100,> 100,> 100,> 100,–,–,> 100,> 100,> 100,68.7,64.6 µM,63.8,35.6,33.9,97.3,–,29.5,–,38.9
OC(c1ccccc1)c1c(-c2ccccc2)oc(-c2ccccc2)c1C(O)c1ccccc1 (stereo unspecified),36.8,28.1,18.9,29.3,31.5,–,62.9,25.6,28.3,23.3,–,–,–,–,–,–,–,–,–,–
C[C@]12CCCC(=O)C1C[C@H](C(=O)O)CC2 (stereo partly specified),> 100,> 100,> 100,> 100,> 100,> 100,> 100,> 100,–,–,–,–,–,–,–,–,–,–,–,–
O=[N+]([O-])c1cc(/C=N/NS(=O)(=O)c2ccc(F)cc2)c(O)c([N+](=O)[O-])c1,67.4,> 100,50,> 100,> 100,76.9,41.2,> 100,–,–,–,–,–,–,–,–,–,–,–,–
CC12OC3CC(O1)C1(C=O)C4CCC5(C)C(c6ccc(=O)oc6)CCC5(O)C4CCC1(C3)O2 (stereo unspecified),0.648,2.44,1.4,1.02,0.79,1.03,0.245,0.781,–,–,–,–,–,–,–,–,–,–,–,–
O=C1CCC(=O)C(C(=O)CCC(=O)Nc2cccc(Cl)c2)C1 (stereo unspecified),> 100,> 100,> 100,> 100,–,> 100,> 100,> 100,–,–,–,–,–,–,–,–,–,–,–,–

Compound,TGI (HCT-15 colon) [µM],TGI (IGROV1 ovarian) [µM],TGI (KM12 colon) [µM],TGI (SF-295 CNS) [µM],TGI (SK-MEL-2 melanoma) [µM],TGI (SNB-75 CNS) [µM],TGI (SR leukemia) [µM],TGI (UACC-62 melanoma) [µM],TGI (DU-145 prostate) [µM],TGI (T-47D breast) [µM],GI50 (DU-145 prostate) [µM],GI50 (HCT-15 colon),GI50 (IGROV1 ovarian) [µM],GI50 (KM12 colon) [µM],GI50 (SF-295 CNS) [µM],GI50 (SK-MEL-2 melanoma) [µM],GI50 (SR leukemia) [µM],GI50 (T-47D breast) [µM],GI50 (SNB-75 CNS) [µM],GI50 (UACC-62 melanoma) [µM]
CN(NC(=O)CC(=O)NN(C)C(=S)c1ccc(Cl)cc1)C(=S)c1ccc(Cl)cc1,> 100,> 100,66.4,19.4,81.8,> 100,–,30.2,> 100,> 100,21.9,7.72 µM,19.8,16.9,3.14,22.7,–,21.8,22.5,11.2
NC(=O)CCC(NC(=O)C(F)(F)F)C(=O)O (stereo unspecified),> 100,> 100,> 100,> 100,> 100,> 100,–,> 100,–,–,–,–,–,–,–,–,–,–,–,–
CCNCCNc1cc(-c2cccc(C(F)(F)F)c2)c(C#N)c2nc3ccccc3n12,2.12,3.49,3.13,3.39,3.59,2.92,–,3.2,2.83,4.21,1.47,0.708 µM,1.72,1.63,1.79,1.87,–,2.2,1.5,1.69
NC(=O)NC(=O)C1CCCCC1C(=O)O (stereo unspecified),> 100,> 100,> 100,> 100,> 100,> 100,–,> 100,> 100,> 100,–,–,–,–,–,–,–,–,–,–
Cc1cc(C)c2[s+]snc2c1,–,> 100,> 100,> 100,> 100,> 100,77,> 100,–,–,–,–,–,–,–,–,–,–,–,–
C=C(C)[C@@H]1CC[C@]2(C)[C@H](C=CC3=C4C[C@@](C)(CO)CC[C@]4(C)CC[C@]32C)[C@@]1(C)CCCN,2.92,2.95,3.02,3.21,3.58,2.97,–,3.17,3.15,–,1.72,1.53 µM,1.5,1.6,1.78,1.92,–,–,1.53,1.78
CC(C)N(C[C@H]1O[C@@H](n2cnc3c(N)ncnc32)[C@H](O)[C@@H]1O)C1CC(CCc2nc3ccc(C(C)(C)C)cc3[nH]2)C1 (stereo partly specified),> 100,> 100,> 100,> 100,> 100,> 100,–,> 100,> 100,> 100,> 100,> 100 µM,> 72.4,> 100,> 70.8,> 69,–,68.5,24.9,99.7
OC1C2C=CCC1CCC2 (stereo unspecified),–,> 100,> 100,> 100,> 100,> 100,> 100,> 100,–,–,–,–,–,–,–,–,–,–,–,–
CCOC(=O)C1(Cc2ccc3ccccc3c2)CCCCCN1 (stereo unspecified),41.4,> 100,–,39,–,30.2,–,> 100,–,–,–,–,–,–,–,–,–,–,–,–
CS[C@@]1(C(=O)Nc2ccc3[nH]nc(-c4ccc(OC(C)C)nc4)c3c2)CCN(CC(=O)N2CC=C(c3ccc(-c4ncn(C)n4)cc3)CC2)C1,> 100,> 100,> 100,> 100,1.11,> 100,63.6,–,> 100,> 100,> 100,2.27 µM,0.271,0.929,> 27.3,0.0571,4.35,27.9,> 100,–
COc1cnc2c(c1)C(=O)c1c-2n(CCCN2CCN(CCO)CC2)c(=O)c2cc([N+](=O)[O-])ccc12,2.67,–,4.41,2.05,39,13.1,–,3.16,4.42,46.5,1.43,1.18 µM,–,1.74,0.533,18.7,–,12.8,1.64,1.22
CCOC(=O)CNC(=O)C(CSC(=O)N(C)O)NC(=O)CCC(N)C(=O)O (stereo unspecified),> 2000,> 2000,> 2000,–,> 2000,> 2000,1.02,> 2000,–,–,–,> 2000 µM,> 2000,> 2000,–,> 2000,–,–,> 2000,> 2000
Cc1sc(/N=C2/NC(=O)CS2)nc1-c1nc(/N=C2/NC(=O)CS2)sc1C,> 50,> 50,> 50,> 50,> 50,> 50,> 50,> 50,> 50,–,> 50,> 50 µM,> 50,28.9,> 50,> 50,24.9,–,> 50,15.9
O=P1(O)c2ccccc2CS(=O)(=O)Cc2ccccc21,> 100,> 100,> 100,> 100,> 100,–,–,> 100,> 100,> 100,–,–,–,–,–,–,–,–,–,–
Oc1[nH]c2ccc(Cl)cc2c1/C=c1/ccc2c(c1)N=C(c1cc(F)cc(F)c1)N=2,> 100,> 100,> 100,–,8.52,7.13,7.95,> 100,> 100,> 100,4.82,3.96 µM,6.21,3.55,–,3.24,2.98,4.47,2.06,3.43
COc1cccc(Nc2nccc(Nc3ccc4[nH]ncc4c3)n2)c1,2.91,–,4.81,3.17,3.27,3.13,4.93,–,2.85,3.12,1.3,1.21 µM,–,1.64,1.66,1.62,1.34,1.05,1.39,–
O=c1[nH]c2c(O)cccc2c2cc3c(c(O)c12)OCO3,> 100,> 100,41.2,44.8,–,> 100,–,71.3,–,–,–,–,–,–,–,–,–,–,–,–
CC(C)[O-].CC(C)[O-].[O-]c1cccc2cccnc12.[O-]c1cccc2cccnc12.[Ti+4],> 100,> 100,50,> 100,> 100,> 100,–,> 100,–,–,–,4.79 µM and 8.05 µM,–,21,> 100,31.3,–,–,> 100,28.5
Cc1cc2c(cc1C)[n+]([O-])c(-c1c(Cl)cccc1Cl)c(N)[n+]2[O-],> 100,> 100,> 100,> 100,> 100,> 100,–,> 100,–,–,–,–,–,–,–,–,–,–,–,–
